Structures can show the parent of a compound that is named as a salt.

The nature of experiment [1]: Example 14: blue light sensitivity and fog after post-exposure bath, emulsion T-1. Conditions: bathed after exposure.
Method: Samples of the coating were exposed to a xenon flash of 10^-3 sec duration filtered through a 2.0 neutral density filter, Kodak Wratten filters 35 and 38A, and a step wedge ranging in density from 0 to 3 density units in 0.15 density steps. These conditions allowed only blue light to expose the coatings. After exposure, one sample of the coating was subjected to each of the following treatments:
B. Post-exposure bath for 15 min in a solution of 5.4×10^-4 M NaBr and 3.0'10^-6 M S-3 at pH=6.0. (Bath 1)
Post-exposure bath for 15 min in a solution of 5.4×10^-4 M NaBr and 1.5×10^-5 M S-3 at pH=6.0. (Bath 2)
The coatings subjected to the post-exposure baths were then rinsed to remove excess solution and all coatings were developed together for 6 min in Kodak Rapid X-ray Developer (KRX). Relative sensitivity to blue light, Sblue, was evaluated at a density of 0.15 units above fog.
The nature of experiment [2]: Example 2: photographic speed and fog, 365 nm exposure, acids vs corresponding esters, emulsion T-1. Further details: Fog: unit not given here. Conditions: for Fog / S365: undyed; for S365: control=100. The protocol:
This chemically sensitized emulsion was then used to prepare the experimental coating variations indicated in Table I. All of the experimental coating variations in Table I contained the hydroxybenzene 2,4-disulfocatechol (HB3) at a concentration of 13 mmole/mole Ag, added to the melt before the addition of any further addenda. The fragmentable electron donor compounds as indicated in Table I were added from an aqueous potassium bromide solution, or from a methanol solution, before additional water, gelatin, and surfactant were added to the emulsion melts.
(§1) For photographic evaluation, each of the coating strips was exposed for 0.1 sec to a 365 nm emission line of a Hg lamp filtered through a Kodak Wratten filter number 18A and a step wedge ranging in density from 0 to 4 density units in 0.2 density steps. The exposed film strips were developed for 6 min in Kodak Rapid X-ray Developer (KRX). S365, relative sensitivity at 365 nm, was evaluated at a density of 0.2 units above fog.
The coatings described in Table II all contain the hydroxybenzene, 2,4-disulfocatechol (HB3) at a concentration of 13 mmole/mole Ag, added to the melt before any further addenda.

The nature of experiment [3]: Example 13: photographic speed and fog, 365 nm exposure, cubic emulsion C-3. As to conditions: for Fog / S365: 0.02 x10^-3 mol/mol Ag. The protocol:
as §1
A chloride containing cubic emulsion with uniform halide distribution was precipitated using deionized gelatin. Emulsion C-3 was an AgClI emulsion with a 1.5% I content and a cubic edge length of 0.36 μm. The emulsion was chemically sensitized by adding 15 mg of Au2 S/mole Ag using a gelatin dispersion. The chemical sensitizer was added to the emulsion at 40° C., the temperature was then raised to 60° C. and the emulsion held for 20 min before cooling back to 40° C. These experimental coating variations contained the hydroxybenzene, 2,4-disulfocatechcol (HB3) at a concentration of 13 mmole/mole Ag, added to the melt before the addition of any further compounds. Some of the variations were then dyed with the sensitizing dye D-I, added from methanol solution. The fragmentable electron donor compound S-9 was then added to the emulsion melts at 40° C. and coatings were prepared and tested as described in Example 1 except that the additional gelatin used to prepare the coatings described in Table XIII was deionized gelatin.

Experiment [4] in a line: Example 8: photographic speed and fog, 365 nm exposure, cubic emulsion C-2. Further details: Fog: unit not given here. The protocol:
as §1
Two cubic emulsions with uniform halide composition were precipitated using deionized gelatin. Emulsion C-1 was a AgErI emulsion with a 3% I content and a cubic edge length of 0.47 μm and emulsion C-2 was an AgBr emulsion with a cubic edge length of 0.52 μm. The emulsions were sulfur sensitized by adding 1,3-dicarboxymethyl-1,3-dimethyl-2-thiourea at 40° C.; the temperature was then raised to 60° C. at a rate of 5° C./3 min and the emulsions held for 20 min before cooling to 40° C. The amounts of the sulfur sensitizing compound used were 1.0×10^-5 mole/mole Ag for emulsion C-1, and 6.0×10^-6mole/mole Ag for emulsion C-2. These experimental coating variations contained the hydroxybenzene, 2,4-disulfocatechcol (HB3) at a concentration of 13 mmole/mole Ag, added to the melt before the addition of any further compounds. Some of the variations were then dyed with the sensitizing dye D-II, added from methanol solution. The fragmentable electron donor compounds were then added to the emulsion melts at 40° C. and coatings were prepared and tested as described in Example 1 except that the additional gelatin used to prepare the coatings described in Table VIII was deionized gelatin. Also, the dyed coatings were tested for their response to a spectral exposure as described in Example 3.

Experiment [5] in a line: Example 12: photographic sensitivity and fog, color format, blue sensitized emulsion T-2. Conditions: for Photographic Sensitivity SWR2B: control=100. The protocol:
The AgBrI tabular silver halide emulsion T-2 from Example 3 was optimally chemically and spectrally sensitized by adding NaSCN, 1.07 mmole of the blue sensitizing dye D-I per mole of silver, Na3 Au(S2 O3)2 ·2H2 O, Na2 S2 O3 ·5H2 O, and a benzothiazolium finish modifier and then subjecting the emulsion to a heat cycle to 65° C. The hydroxybenzene, 2,4-disulfocatechcol (HB3) at a concentration of 13×10^-3 mole/mole Ag was added to the emulsion melt before the start of the chemical sensitization procedure. This chemically sensitized emulsion was then used to prepare the experimental coating variations given in Table X. For all the variations in Table X, the antifoggant and stabilizer tetraazaindene (TAI) was added to the emulsion melt in an amount of 1.75 g/mole Ag before any further addenda. The fragmentable two-electron donors S-3, S-9, S-6, or S-8 were then added to the emulsion melt.
The melts were prepared for coating by adding additional water, deionized gelatin and coating surfactants. Coatings were prepared by combining the emulsion melts with a melt containing deionized gelatin and an aqueous dispersion of the cyan-forming color coupler CC-1 and coating the resulting mixture on acetate support. The final coatings contained Ag at 0.81 g/m^2, coupler at 1.61 g/m^2, and gelatin at 3.23 g/m^2. The coatings were overcoated with a protective layer containing gelatin at 1.08 g/m^2, coating surfactants, and a bisvinylsulfonylmethyl ether as a gelatin hardening agent. The structure of the color coupler CC-1 is given below: [drawing 120]
For photographic evaluation, each of the coating strips was exposed for 0.01 sec to a 3000K color temperature tungsten lamp filtered to give an effective color temperature of 5500K and further filtered through a Kodak Wratten filter number 2B, and a step wedge ranging in density from 0 to 4 density units in 0.20 density steps. This exposure gives light absorbed mainly by the blue sensitizing dye. The exposed film strips were developed for 31/4 minutes in Kodak C-41 color developer. SWR2B, relative sensitivity for this filtered exposure, was evaluated at a cyan density of 0.15 units above fog.
The AgBrI tabular emulsion T-2 as described in Example 3 was sensitized as described in Example 10 except that the hydroxybenzene HB3 was added at the completion of the chemical sensitization procedure. For all the variations in Table XII, the antifoggant and stabilizer tetraazaindene (TAI) was added to the emulsion melt in an amount of 1.75 g/mole Ag before any further addenda. The fragmentable electron donors PMT-1 or PMT-2 were then added to the emulsion melt. These compounds contain a phenylmercaptotetrazole as the silver halide adsorbing group. The melts were then coated and tested as described in Example 10.

[6] abbreviates: 0.16 x10^-3 mol/mol Ag, no dye, control=100.

On to `CCSCCN(c1ccc(C)cc1)[C@@H](C)C(=O)[O-].[Na+]` [Compound S-3, N-(4-Methylphenyl)-N-(2-ethylthio-ethyl)alanine sodium salt], for which the “sensitivity gain relative to unbathed coating” value in experiment [1] is given as ~2 X. In addition, the Fog in experiment [2] (0.00220 x10^-3 mole/mole Ag) amounted to 0.07; in experiment [2] (0.00700 x10^-3 mole/mole Ag) it was 0.06; in experiment [2] (0.02200 x10^-3 mole/mole Ag) it was 0.11; in experiment [2] (0.07000 x10^-3 mole/mole Ag), 0.57; in experiment [2] (0.22000 x10^-3 mole/mole Ag) it was 1.24. For the same molecule, the S365 in experiment [2] (0.00220 x10^-3 mole/mole Ag) is 110; in experiment [2] (0.00700 x10^-3 mole/mole Ag), 120; in experiment [2] (0.02200 x10^-3 mole/mole Ag), 141. In experiment [2] (undyed T-1 emulsion), the “speed and fog change” value was “both speed and fog increases”.
As for `CCSCCN(c1ccccc1)C(C)C(=O)O` (centres unmarked) [Compound S-9, N-(Phenyl)-N-(2-thioethyl-ethyl)alanine sodium salt], the Fog in experiment [3] (dye I 0.61 x10^-3) stood at 0.14; in experiment [3] (no dye), 0.15; in experiment [4] (0.005 x10^-3 mol/mol Ag, dye II 0.40 x10^-3) it was 0.16; in experiment [4] (0.016 x10^-3 mol/mol Ag, dye II 0.40 x10^-3), 0.19; in experiment [4] (0.05 x10^-3 mol/mol Ag, no dye), 0.06; in experiment [4] (0.16 x10^-3 mol/mol Ag, no dye), 0.06. For the same molecule, the S365 in experiment [3] (dye I 0.61 x10^-3, dyed control 74) came to 129; in experiment [3] (no dye, control=100), 118; in experiment [4] (0.005 x10^-3 mol/mol Ag, dye II 0.40 x10^-3, dyed control 76) it was 141; in experiment [4] (0.016 x10^-3 mol/mol Ag, dye II 0.40 x10^-3, dyed control 76), 166; in experiment [4] (0.05 x10^-3 mol/mol Ag, no dye, control=100), 204; in experiment [4] (setting [6]) it was 209. In addition, the speed increase in experiment [3] (undyed AgClI cubic emulsion) stood at 1.2 X.
Consider `CCSCCN(c1ccc(C(=O)O)cc1)C(C)C(=O)O` (centres unmarked) [Compound S-11], for which the Fog in experiment [4] (0.05 x10^-3 mol/mol Ag, dye II 0.40 x10^-3) amounted to 0.10; in experiment [4] (0.16 x10^-3 mol/mol Ag, dye II 0.40 x10^-3), 0.14; in experiment [4] (0.16 x10^-3 mol/mol Ag, no dye), 0.06; in experiment [4] (0.50 x10^-3 mol/mol Ag, no dye) it was 0.06. The S365 in experiment [4] (0.05 x10^-3 mol/mol Ag, dye II 0.40 x10^-3, dyed control 76) stood at 145; in experiment [4] (0.16 x10^-3 mol/mol Ag, dye II 0.40 x10^-3, dyed control 76), 166; in experiment [4] (setting [6]), 200; in experiment [4] (0.50 x10^-3 mol/mol Ag, no dye, control=100), 209.
Consider `Cc1ccc(N(CCC(=O)Nc2cccc(-n3nnnc3S)c2)C(C)C(=O)O)cc1` (centres unmarked) [PMT-1], for which, in experiment [5] (0.5 x10^-6 mol/mol Ag), the Fog came out at 0.09 and the “Photographic Sensitivity SWR2B” value is 138. In addition, in experiment [5] (1.5 x10^-6 mol/mol Ag), the Fog was found to be 0.15 and the “Photographic Sensitivity SWR2B” value stood at 166.
On to `CC(C(=O)O)N(CCC(=O)Nc1cccc(-n2nnnc2S)c1)c1ccccc1` (centres unmarked) [PMT-2], for which the Fog in experiment [5] (0.5 x10^-6 mol/mol Ag) came to 0.09; in experiment [5] (1.4 x10^-6 mol/mol Ag) it was 0.10; in experiment [5] (4.5 x10^-6 mol/mol Ag), 0.16. Besides, the “Photographic Sensitivity SWR2B” value is on record as 141 in experiment [5] (0.5 x10^-6 mol/mol Ag), 166 in experiment [5] (1.4 x10^-6 mol/mol Ag) and 191 in experiment [5] (4.5 x10^-6 mol/mol Ag).

For the origin of these results see patent publication US5747235A, “Silver halide light sensitive emulsion layer having enhanced photographic sensitivity” (Eastman Kodak Company, priority 1996, dated 1998).
